US20250145589A1, “PYRIDINE DERIVATIVE AND USE THEREOF” (SICHUAN HUIYU PHARMACEUTICAL CO., LTD., priority 2021, published 2025)
Like-named read-outs stand apart in the source and are kept apart here.

How the values were obtained:
PI3Kα = PI3Kα (Homo sapiens (Human), UniProt P42336); test: Inhibition of PI3Kα efficacy assay (ADP-Glo kinase assay); format: biochemical; conditions: Table 2; read-out: PI3Kα inhibitory activity (IC50)
How it was run: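 ADP-Glo luminescent detection of ADP from PI3Kα acting on PI substrate with ATP, 60 min at RT; compounds in 8-point five-fold serial dilution from 2 mM DMSO stock. IC50 from four-parameter variable-slope fit.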

PI3Kδ = PI3Kδ (Homo sapiens (Human), UniProt O00329); test: Inhibition of PI3Kδ efficacy assay (ADP-Glo kinase assay); format: biochemical; conditions: Table 2; read-out: PI3Kδ inhibitory activity (IC50)
Chain of PI3Kδ (O00329 whole entry): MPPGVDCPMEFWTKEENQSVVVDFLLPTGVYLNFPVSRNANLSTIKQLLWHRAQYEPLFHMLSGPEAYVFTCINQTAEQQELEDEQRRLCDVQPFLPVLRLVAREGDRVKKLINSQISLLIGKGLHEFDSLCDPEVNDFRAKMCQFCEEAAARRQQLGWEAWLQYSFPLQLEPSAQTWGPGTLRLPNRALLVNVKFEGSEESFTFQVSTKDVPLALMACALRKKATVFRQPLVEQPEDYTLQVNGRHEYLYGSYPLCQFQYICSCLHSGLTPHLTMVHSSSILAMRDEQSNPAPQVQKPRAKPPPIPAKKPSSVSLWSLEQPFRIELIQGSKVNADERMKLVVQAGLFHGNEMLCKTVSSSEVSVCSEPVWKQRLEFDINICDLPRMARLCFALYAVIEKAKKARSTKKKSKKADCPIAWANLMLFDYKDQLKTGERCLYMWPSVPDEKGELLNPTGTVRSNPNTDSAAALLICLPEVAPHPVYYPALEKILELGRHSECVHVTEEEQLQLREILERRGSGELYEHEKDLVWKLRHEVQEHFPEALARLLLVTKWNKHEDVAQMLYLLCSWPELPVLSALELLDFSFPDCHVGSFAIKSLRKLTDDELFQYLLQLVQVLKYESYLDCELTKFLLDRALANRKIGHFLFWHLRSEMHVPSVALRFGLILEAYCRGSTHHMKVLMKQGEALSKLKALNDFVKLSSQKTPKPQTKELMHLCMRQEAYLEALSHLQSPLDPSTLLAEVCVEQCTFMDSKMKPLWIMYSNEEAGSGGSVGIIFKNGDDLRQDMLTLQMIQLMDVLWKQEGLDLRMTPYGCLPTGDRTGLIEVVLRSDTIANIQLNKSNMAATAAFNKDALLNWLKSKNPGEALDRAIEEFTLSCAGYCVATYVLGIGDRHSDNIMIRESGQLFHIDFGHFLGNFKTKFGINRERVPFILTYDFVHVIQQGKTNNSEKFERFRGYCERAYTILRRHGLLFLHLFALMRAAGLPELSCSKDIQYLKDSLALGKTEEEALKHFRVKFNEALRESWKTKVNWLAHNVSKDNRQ
Chain of PI3Kδ (P27986 whole entry partner): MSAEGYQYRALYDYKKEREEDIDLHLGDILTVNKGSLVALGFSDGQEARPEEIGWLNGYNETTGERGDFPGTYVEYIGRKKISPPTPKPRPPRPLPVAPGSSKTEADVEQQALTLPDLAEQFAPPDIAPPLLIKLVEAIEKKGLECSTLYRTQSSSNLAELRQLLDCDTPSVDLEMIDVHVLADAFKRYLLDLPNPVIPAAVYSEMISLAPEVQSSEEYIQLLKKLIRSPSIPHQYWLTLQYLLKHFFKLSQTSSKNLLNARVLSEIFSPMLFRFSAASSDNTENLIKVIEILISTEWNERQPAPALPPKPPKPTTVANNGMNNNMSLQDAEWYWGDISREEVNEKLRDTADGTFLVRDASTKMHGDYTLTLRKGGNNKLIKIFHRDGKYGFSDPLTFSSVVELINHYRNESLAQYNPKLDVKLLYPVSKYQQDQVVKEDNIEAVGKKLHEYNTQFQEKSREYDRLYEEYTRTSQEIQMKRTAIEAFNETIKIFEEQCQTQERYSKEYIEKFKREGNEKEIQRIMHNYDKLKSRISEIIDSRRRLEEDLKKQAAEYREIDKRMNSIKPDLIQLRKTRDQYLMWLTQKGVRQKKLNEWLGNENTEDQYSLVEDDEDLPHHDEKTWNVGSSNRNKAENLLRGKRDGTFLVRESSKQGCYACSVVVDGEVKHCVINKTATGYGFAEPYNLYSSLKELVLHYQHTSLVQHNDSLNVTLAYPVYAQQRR
Protocol: Test Example 2: Inhibition of PI3Kδ Efficacy assay The ADP-Glo™ kinase assay was used to assess the inhibition of PI3Kδ with our compounds. The utilized proteins and assay reagents were obtained from the ADP-Glo™ Kinase Assay Kit (Promega). Initially, a 2 mM stock solution of the test compound (dissolved in DMSO) was serially diluted in five-fold concentrations using DMSO to obtain eight working solutions 1 (200×) Subsequently, each of the eight working solutions 1 was further diluted in a 20-fold gradient by adding 5 μL into 95 μL of ddH2O, resulting in eight working solutions 2 (10×). […] Subsequently, 2 μL of 2.5×PI and ATP solution mixture were added to each well, mixed, and incubated at RT for 60 minutes. Then, 5 μL of ADP-Glo (containing 10 mM MgCl2) reagent was added to each well, mixed, and incubated at RT for 40 minutes. Finally, 10 μL of the Kinase Detection Reagent was added to each well, mixed, and incubated at RT for 40 minutes. Luminescence values were recorded using a multi-mode microplate reader with luminescence channel settings, and the inhibitory rate was calculated using the following formula: [formula] Data were analyzed using GraphPad Prism with log(inhibitor) vs. response—Variable Slope(four parameters) fitting calculations for IC50 values.

[1] = tested on: NCI-H358 cells (KRAS G12C mutant); test: NCI-H358 cell proliferation inhibition (CellTiter-Glo); format: cell-based; conditions: H358 cells (G12C mutation), 3 days, Table 6, read-out: NCI-H358 (IC50)
[2] = tested on: MIA PaCa-2 cells (KRAS G12C mutant); test: MIA PaCa-2 cell anti-proliferation (CellTiter-Glo); format: cell-based; conditions: Homo sapiens, 72 h; MIA Paca-2 cells, 3 days, Table 7; read-out: MIA PaCa-2 (IC50)
Protocol: The number of viable cells was determined using the CellTiter-Glo® assay to evaluate the anti-proliferation efficacy of compounds. […] The compounds were serially diluted 4-fold in DMSO to obtain 9 concentrations, and then further diluted with DMEM (10% FBS+2.5% horse serum+1% penicillin/streptomycin) cell culture medium to obtain the working solutions (2×), 15 μL of each working solution was added to the cell culture supernatant in each well, and the cells were further incubated for 3 days at 37° C. with 5% CO2. The plate was then equilibrated with CellTiter-Glo® reagent at room temperature (25° C.) for 30 minutes. After adding 25 μL of CellTiter-Glo®, reagent, the cells were thoroughly mixed with the CellTiter-Glo® reagent using a microplate shaker for 2 minutes, and then incubated at room temperature for at least 30 minutes. […] Data were analyzed using GraphPad Prism for IC50 values (Note: The negative control refers to the group without inhibitor).

Chain of PI3Kα (P42336 whole entry): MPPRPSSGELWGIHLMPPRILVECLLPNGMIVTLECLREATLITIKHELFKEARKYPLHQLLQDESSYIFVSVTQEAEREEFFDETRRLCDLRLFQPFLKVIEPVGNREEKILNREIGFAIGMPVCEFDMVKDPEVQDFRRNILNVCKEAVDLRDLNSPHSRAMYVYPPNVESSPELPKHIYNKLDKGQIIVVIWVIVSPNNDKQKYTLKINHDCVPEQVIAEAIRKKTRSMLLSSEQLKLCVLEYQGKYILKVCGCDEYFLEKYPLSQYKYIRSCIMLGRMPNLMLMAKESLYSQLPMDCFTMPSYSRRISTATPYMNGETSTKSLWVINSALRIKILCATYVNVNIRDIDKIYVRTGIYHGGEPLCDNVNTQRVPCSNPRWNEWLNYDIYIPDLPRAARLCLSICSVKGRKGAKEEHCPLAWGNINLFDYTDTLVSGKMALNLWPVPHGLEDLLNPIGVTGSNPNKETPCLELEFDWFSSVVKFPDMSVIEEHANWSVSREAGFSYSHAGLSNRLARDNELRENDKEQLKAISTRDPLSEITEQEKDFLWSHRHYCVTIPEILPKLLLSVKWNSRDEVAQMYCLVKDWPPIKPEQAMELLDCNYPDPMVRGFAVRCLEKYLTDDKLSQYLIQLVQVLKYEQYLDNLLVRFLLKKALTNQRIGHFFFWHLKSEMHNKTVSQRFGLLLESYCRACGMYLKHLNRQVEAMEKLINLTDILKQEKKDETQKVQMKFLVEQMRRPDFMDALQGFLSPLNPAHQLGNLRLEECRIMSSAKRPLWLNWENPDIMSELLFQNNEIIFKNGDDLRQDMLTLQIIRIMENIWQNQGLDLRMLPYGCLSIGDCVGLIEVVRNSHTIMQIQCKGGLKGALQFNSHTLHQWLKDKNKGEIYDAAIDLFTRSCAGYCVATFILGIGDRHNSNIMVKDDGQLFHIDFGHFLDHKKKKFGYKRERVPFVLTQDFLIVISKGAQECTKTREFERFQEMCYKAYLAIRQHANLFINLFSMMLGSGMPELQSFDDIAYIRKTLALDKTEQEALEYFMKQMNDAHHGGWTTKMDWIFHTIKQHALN
Chain of PI3Kα (P27986 whole entry partner): as the sequence (P27986 whole entry partner) above

SMILES	IC50 (PI3Kα) [nM]	IC50 (PI3Kδ) [nM]	IC50 ([1]; Homo sapiens, NCI-H358, 72 h) [nM]	IC50 [1] [nM]	IC50 [2] [nM]
COc1ncc(-c2ccc3ncnc(N4CCN(C(=O)C5=CC(=O)CCC5)CC4)c3c2)cc1NS(=O)(=O)c1ccc(F)cc1F [Example 72, 2,4-difluoro-N-(2-methoxy-5-(4-(4-(3-oxocyclohex-1-ene-1-carbonyl)piperazin-1-yl)quinazolin-6-yl)pyridin-3-yl)benzenesulfonamide]	5.9	24.3	14.4	–	–
COc1ncc(-c2ccc3ncnc(N4CCN(C(=O)C5=CC(=O)CCC5)CC4)c3c2)cc1NS(=O)(=O)c1ccc(Cl)s1 [Example 73, 5-chloro-N-(2-methoxy-5-(4-(4-(3-oxocyclohexane-1-en-1-carbonyl)piperazin-1-yl)quinazoline-6-yl)pyridin-3-yl)thiophene-2-sulfonamide]	2.5	16.5	34.3	–	–
COc1ncc(-c2ccc3ncnc(N4CCN(C(=O)C5=CC(=O)CC5)CC4)c3c2)cc1NS(=O)(=O)c1ccc(F)cc1F [Example 74, 2,4-difluoro-N-(2-methoxy-5-(4-(4-(3-oxocyclopent-1-ene-1-carbonyl)piperazin-1-yl)quinazolin-6-yl)pyridin-3-yl)benzenesulfonamide]	1.8	23.2	26.5	–	–
COc1ncc(-c2ccc3ncnc(N4CCN(C(=O)/C=C/S(C)(=O)=O)CC4)c3c2)cc1NS(=O)(=O)c1ccc(F)cc1F [Example 75, (E)-2,4-difluoro-N-(2-methoxy-5-(4-(4-(3-(methylsulfonyl)acryloyl)piperazin-1-yl)quinazolin-6-yl)pyridin-3-yl)benzenesulfonamide]	0.78	31.2	285	–	–
COc1ncc(-c2ccc3ncnc(N4CCN(C(=O)/C=C/P(C)(C)=O)CC4)c3c2)cc1NS(=O)(=O)c1ccc(F)cc1F [Example 76, (E)-N-(5-(4-(4-(3-(dimethylphosphoryl)acryloyl)piperazin-1-yl)quinazolin-6-yl)-2-methoxypyridin-3-yl)-2,4-difluorobenzenesulfonamide]	7.5	25.3	3420	–	–
CCc1ncc(-c2ccc3ncnc(N4CCN(C(=O)/C=C/C(C)=O)CC4)c3c2)cc1NS(=O)(=O)c1ccc(F)cc1F [Example 83, (E)-N-(2-ethyl-5-(4-(4-(4-oxopent-2-enoyl)piperazin-1-yl)quinazolin-6-yl)pyridin-3-yl)-2,4-difluorobenzenesulfonamide]	6.2	17.6	459	–	–
CC(=O)/C=C/C(=O)N1CCN(c2ncnc3ccc(-c4cnc(OC5CCCC5)c(NS(=O)(=O)c5ccc(F)cc5F)c4)cc23)CC1 [Example 107, (E)-N-(2-(cyclopentyloxy)-5-(4-(4-(4-oxopent-2-enoyl)piperazin-1-yl)quinazolin-6-yl)pyridin-3-yl)-2,4-difluorobenzenesulfonamide]	126	794	405	–	–
COc1ncc(-c2ccc3ncnc(N4CCN(C(=O)/C=C/C(C)=O)[C@@H](CC#N)C4)c3c2)cc1NS(=O)(=O)c1ccc(F)cc1F [Example 112, (S,E)-N-(5-(4-(3-(cyanomethyl)-4-(4-oxopent-2-enoyl)piperazin-1-yl)quinazolin-6-yl)-2-methoxypyridin-3-yl)-2,4-difluorobenzenesulfonamide]	5	23.9	72.2	–	–
C=C(F)C(=O)N1CCN(c2ncnc3ccc(-c4cnc(OC)c(NS(=O)(=O)c5ccc(F)cc5F)c4)cc23)C[C@@H]1CC#N [Example 113, (S)-N-(5-(4-(3-(cyanomethyl)-4-(2-fluoroacryloyl)piperazin-1-yl)quinazolin-6-yl)-2-methoxypyridin-3-yl)-2,4-difluorobenzenesulfonamide]	2.9	11.5	58	–	–
C=CC(=O)N1CCN(c2ncnc3ccc(-c4cnc(OC)c(NS(=O)(=O)c5ccc(F)cc5F)c4)cc23)C[C@@H]1CC#N [Example 114, (S)-N-(5-(4-(4-acryloyl-3-(cyanomethyl)piperazin-1-yl)quinazolin-6-yl)-2-methoxypyridin-3-yl)-2,4-difluorobenzenesulfonamide]	1.4	28.5	34.6	–	–
COc1ncc(-c2ccc3ncnc(N4CCN(C(=O)/C=C/C(C)=O)CC4)c3c2)cc1NS(=O)(=O)c1ccc(F)cn1 [Example 118, (E)-5-fluoro-N-(2-methoxy-5-(4-(4-(4-oxopent-2-enoyl)piperazin-1-yl)quinazolin-6-yl)pyridin-3-yl)pyridine-2-sulfonamide]	1.9	19.7	79.2	–	–
C=CC(=O)N1CCN(c2ncnc3ccc(-c4cnc(OC)c(NS(=O)(=O)c5ccc(F)cn5)c4)cc23)CC1 [Example 119, N-(5-(4-(4-acryloylpiperazin-1-yl)quinazolin-6-yl)-2-methoxypyridin-3-yl)-5-fluoropyridine-2-sulfonamide]	2.8	11.8	67.9	–	–
C=C(F)C(=O)N1CCN(c2ncnc3ccc(-c4cnc(OC)c(NS(=O)(=O)c5ccc(F)cn5)c4)cc23)CC1 [Example 120, 5-fluoro-N-(5-(4-(4-(2-fluoroacryloyl)piperazin-1-yl)quinazolin-6-yl)-2-methoxypyridin-3-yl)pyridine-2-sulfonamide]	3	11.5	94.9	–	–
C=C1CCN(C2CN(c3ncnc4ccc(-c5cnc(OC)c(NS(=O)(=O)c6ccc(F)cc6F)c5)cc34)C2)C1=O [Example 125]	5	17	–	97.2	–
COc1ncc(-c2ccc3ncnc(N4CCN(C(=O)C5OC5C(C)=O)CC4)c3c2)cc1NS(=O)(=O)c1ccc(F)cc1F (stereo not drawn) [Example 127, N-(5-(4-(4-(3-acetyloxirane-2-carbonyl)piperazin-1-yl)quinazolin-6-yl)-2-methoxypyridin-3-yl)-2,4-difluorobenzenesulfonamide]	1.9	31.7	22.2	–	–
COc1ncc(-c2ccc3ncnc(NC4CCN(C(=O)/C=C/C(C)=O)CC4)c3c2)cc1NS(=O)(=O)c1ccc(F)cc1F [Example 130, (E)-2,4-difluoro-N-(2-methoxy-5-(4-((1-(4-oxopent-2-enoyl)piperidin-4-yl)amino)quinazolin-6-yl)pyridin-3-yl)benzenesulfonamide]	2.6	15.2	442	–	–
COc1ncc(-c2ccc3ncnc(N4CCN(C(=O)/C=C/C(C)=O)CC4)c3n2)cc1NS(=O)(=O)c1ccc(F)cc1 [Example 134, (E)-4-fluoro-N-(2-methoxy-5-(4-(4-(4-oxopent-2-enoyl)piperazin-1-yl)pyrido[3,2-d]pyrimidin-6-yl)pyridin-3-yl)benzenesulfonamide]	–	–	–	–	19.6
COc1ncc(-c2ccc3ncnc(N4CCN(C(=O)/C=C/C(C)=O)CC4)c3n2)cc1NS(=O)(=O)c1ccc(F)cc1Cl [Example 135, (E)-2-chloro-4-fluoro-N-(2-methoxy-5-(4-(4-(4-oxopent-2-enoyl)piperazin-1-yl)pyrido[3,2-d]pyrimidin-6-yl)pyridin-3-yl)benzenesulfonamide]	–	–	–	–	9.1
COc1ncc(-c2ccc3ncnc(N4CCC5(CC4)CN(C(=O)/C=C/C(C)=O)C5)c3n2)cc1NS(=O)(=O)c1c(F)cccc1F [Example 136, (E)-2,6-difluoro-N-(2-methoxy-5-(4-(2-(4-oxopent-2-enoyl)-2,7-diazaspiro[3.5]nonan-7-yl)pyrido[3,2-d]pyrimidin-6-yl)pyridin-3-yl)benzenesulfonamide]	–	–	–	–	6.6
